How the values were obtained:
[1] = tested on: methylguanidine-decomposing enzyme; assay: Inhibition of the enzyme: residual activity after treatment with inhibitor; format: biochemical, Alcaligenes; conditions: for Residual activity of enzyme (%): activity without inhibitor = 100; for Inhibition of the enzyme (in words): conditions and concentrations of Table 1
Protocol: A substrate solution having a methylguanidine sulfate concentration of 100 μg/ml is prepared by dissolving methylguanidine sulfate into 0.05 M sodium carbonate-sodium bicarbonate buffer solution (pH 11.0). […] If a precipitate is formed, the precipitate is removed by centrifugation or filtration. Thus, an enzymatic reaction fluid is obtained.
Then, each 50 μl of the enzymatic reaction fluid or the control is mixed with 1.5 ml of 0.1 mM solution of phenanthraquinone in dimethylformamide and 0.25 ml of 1 M aqueous solution of sodium hydroxide and subjected to reaction at room temperature for 40-50 minutes, and then 0.25 ml of concentrated hydrochloric acid and 2.5 ml of water are added. Then, the relative fluorescence intensities of the resulted reaction mixtures are measured with a fluorophotometer at an exciting wave length of 310 nm and a fluorescence wave length of 390 nm. The decrease in methylguanidine content is calculated from the difference in fluorescence intensities between each reaction mixture for the enzymatic reaction and the control.
In the expression of activity, a quantity of enzyme enough to decompose 1 μ-mole of methylguanidine per 1 minute at 30° C. is defined as one unit.

[2] = tested on: methylguanidine-decomposing enzyme; assay: Stabilization of the enzyme; format: physicochemical, Alcaligenes; conditions: 10% (V/W) of glycerin added
Description: The enzyme is stabilized by adding 10% (V/W) of glycerin to it.

[3] = tested on: methylguanidine-decomposing enzyme; assay: Action and substrate specificity of the enzyme; format: biochemical, Alcaligenes
Description: This enzyme decomposes methylguanidine to form methylamine and urea: [drawing 1]
This enzyme exerts no action upon guanidoacetic acid (glycocyamine) and guanididosuccinic acid.

[4] = 1 mM inhibitor, 30° C., pH 9, 1 hour
[5] = 1 mM inhibitor, 30° C., pH 10, 60 minutes

## O[C@H](CS)[C@H](O)CS (racemic) [Dithiothreitol, dithiothreitol]
[1]; [4]
  Residual activity of enzyme (%): 0%
[1]
  Inhibition of the enzyme (in words): markedly inhibited

## OCCS [2-Mercaptoethanol, 2-mercaptoethanol]
[1]; [4]
  Residual activity of enzyme (%): 0%
[1]
  Inhibition of the enzyme (in words): markedly inhibited

## O=[N+]([O-])[O-].[Ag+] [AgNO3, silver nitrate]
[1]; [5]
  Residual activity of enzyme (%): 4%
[1]
  Inhibition of the enzyme (in words): markedly inhibited

## [Cl][Hg][Cl] [HgCl2, mercurie chloride]
[1]; [5]
  Residual activity of enzyme (%): 0%
[1]
  Inhibition of the enzyme (in words): markedly inhibited

## II [I2, iodine]
[1]; 1 mM I2, 40° C., pH 7, 1 hour
  Residual activity of enzyme (%): 0%
[1]
  Inhibition of the enzyme (in words): markedly inhibited

## OCC(O)CO [glycerin]
[2]
  Stabilization of the enzyme: stabilized

## N=C(N)NC(CC(=O)O)C(=O)O (centres unmarked) [guanididosuccinic acid]
[3]
  Action of the enzyme upon the substrate: no action

## N=C(N)NCC(=O)O [guanidoacetic acid]
[3]
  Action of the enzyme upon the substrate: no action

## CNC(=N)N [methylguanidine]
[3]
  Action of the enzyme upon the substrate: decomposes

Source: patent US4247632A (Kikkoman Shoyu Co., Ltd., priority 1978, dated 1981)
